# Laboratory results taken from patent US20250032651A1, “[177LU] LUTETIUM-PSMA I&T COMPOSITION AND DOSIMETRY, KIT, METHOD OF MAKING, AND METHOD OF USING THEREOF” (Curium US LLC, priority 2022, published 2025).
# Assay: Normal organ dosimetry Cycle 1: SPECT/CT, TIACs, OLINDA 2.2.3 absorbed radiation dose
# Type: in vivo, human
# Details: for Absorbed Dose, Mean / Absorbed Dose, max / Absorbed Dose, median / Absorbed Dose, min: Cycle 1, n = 26
# Method: This Example presents the biodistribution, dosimetry, and pharmacokinetics (PK) results of a PK/Dosimetry sub-study performed as part of a Phase III trial. Twenty-seven (27) patients were administered a target activity of 7.4±10% GBq of ^177Lu-PSMA-I&T and underwent single photon emission computed tomography (SPECT)/computed tomography (CT) imaging at four timepoints (4 h, 24 h, 48 h, and 168 h). Image data was analysed to compute time-activity curves (TACs) and subsequently time-integrated activity coefficients (TIACs) in each organ of interest and in organs showing appreciable and meaningful ^177Lu-PSMA-I&T activity. Organ Level Internal Dose Assessment (OLINDA 2.2.3) was used to compute organ and whole body absorbed radiation doses for each patient.
# All participating sites underwent a rigorous site setup process during which all dose calibrators, scanners, and gamma counters used in the sub-study were calibrated. Sites were allowed to enroll patients in the sub-study only after the completion and approval of all site setup processes by Invicro. Patients underwent SPECT/CT imaging, with anatomical coverage typically extending from the salivary glands to the pelvis, following the administration of a targeted 7.4±10% GBq of ^177Lu-PSMA-I&T at cycle 1. SPECT/CT imaging was performed at four timepoints: 4 h, 24 h, 48 h, and 168 h post-injection. Additionally, a subset of patients imaged at Cycle 1 (16 out of 27), were also imaged at Cycle 3 (Table 2).
# The imaging data was analyzed using Invicro's VivoQuant software, a validated software used in a 21 CFR § 11-compliant workflow. The general quantification approach was based on the principles detailed in the Medical Internal Radiation Dose (MIRD) Pamphlet No. 16, No 23, and No 26 as appropriate.
# Volume of interest (VOI) (kidneys, bladder, liver, lumbar vertebrae L2-L4, lacrimal glands, salivary glands [parotid and submandibular glands], and whole body) were delineated on each dataset by a trained image analyst. […] Organs were segmented either by drawing the entire contour of the organ, or by placing a sphere in a representative region of the organ and then multiplying by the organ's effective mass (based on patient's height and weight). Segmentation methods for each organ are specified in Table 3 and were consistently applied to each patient.
# Clearance of the radiopharmaceutical was derived from a data-appropriate fit of each organ's TAC. Depending on the TAC's shape, the data was fitted with the sum of one, two, or three exponentials, or using a rise and fall model. Fitting was performed with in-house Python software. TIACs were calculated through analytical integration of the curve fit extrapolated to infinity. […] A whole-body TAC was derived from delineating the imaged body. The remainder activity was determined by subtracting the cumulative organ TIACs from the whole body TIAC.
# Organ TIACs were input into OLINDA 2.2.3 for the computation of organ and whole-body absorbed doses, using International Commission on Radiological Protection (ICRP)-103 weighing factors. The ICRP-89 derived male phantom was used for dose estimation. Organs and body mass as defined by ICRP-89 were scaled based on height and mass using patient effective mass.^4 The voiding bladder model as implemented in OLINDA was used to determine bladder TIAC, assuming a voiding interval of 4 hours. The human alimentary tract model (HAT model) described in ICRP 100 and implemented in OLINDA was used to compute doses to the small intestine, right colon, left colon and rectum for patients showing clearance through the GI tract. The fraction of injected activity (fIA) cleared via the GI tract was determined by taking the peak fIA in the GI tract over all the imaging timepoints. […] The Red Marrow mass in L2-L4 was assumed to be 6.7% of the total red marrow mass.
# [1] = Kidneys, 16 patients imaged at cycle 1 and 3
# [2] = Lacrimal Glands (OLINDA sphere model), 16 patients imaged at cycle 1 and 3
# [3] = Lacrimal Glands, N = 16, OLINDA sphere model
# [4] = Left colon, 16 patients imaged at cycle 1 and 3
# [5] = Liver, 16 patients imaged at cycle 1 and 3
# [6] = Lungs, 16 patients imaged at cycle 1 and 3
# [7] = Osteogenic cells, 16 patients imaged at cycle 1 and 3
# [8] = Pancreas, 16 patients imaged at cycle 1 and 3
compound,measurement,setting,value
"O=C([O-])CC[C@H](NC(=O)N[C@@H](CCCCNC(=O)CCCCCCC(=O)NCCCC[C@@H](NC(=O)[C@@H](Cc1ccccc1)NC(=O)[C@@H](Cc1ccc(O)c(I)c1)NC(=O)CC[C@H](C(=O)[O-])N1CCN(CC(=O)[O-])CCN(CC(=O)[O-])CCN(CC(=O)[O-])CC1)C(=O)[O-])C(=O)[O-])C(=O)[O-].[177Lu+3].[H+].[H+].[H+].[H+].[H+] [^177Lu-PSMA I&T, (3S,7S,26R,29R,32R,37R)-29-benzyl-32-(4-hydroxy-3-iodobenzyl)-5,13,20,28,31,34-hexaoxo-37-(4,7,10-tris(carboxymethyl)-1,4,7,10-tetraazacyclododecan-1-yl)-4,6,12,21,27,30,33-heptaazaheptatriacontane-1,3,7,26,37-pentacarboxylic acid; lutetium-177 (III)]","Absorbed Dose in Cycle 1, min","Heart wall, N = 16",0.00 Gy/GBq
same,"Absorbed Dose in Cycle 1, Mean",[1],0.41 Gy/GBq
same,"Absorbed Dose in Cycle 1, max",[1],0.81 Gy/GBq
same,"Absorbed Dose in Cycle 1, min",[1],0.17 Gy/GBq
same,"Absorbed Dose, Mean",Kidneys,0.41 Gy/GBq
same,"Absorbed Dose, max",Kidneys,0.81 Gy/GBq
same,"Absorbed Dose, median",Kidneys,0.37 Gy/GBq
same,"Absorbed Dose, min",Kidneys,0.17 Gy/GBq
same,"Absorbed Dose in Cycle 1, Mean","Kidneys, N = 16",0.41 Gy/GBq
same,"Absorbed Dose in Cycle 1, max","Kidneys, N = 16",0.81 Gy/GBq
same,"Absorbed Dose in Cycle 1, min","Kidneys, N = 16",0.17 Gy/GBq
same,"Absorbed Dose in Cycle 1, Mean",[2],0.39 Gy/GBq
same,"Absorbed Dose in Cycle 1, max",[2],1.19 Gy/GBq
same,"Absorbed Dose in Cycle 1, min",[2],0.04 Gy/GBq
same,"Absorbed Dose, Mean",Lacrimal Glands,0.40 Gy/GBq
same,"Absorbed Dose, max",Lacrimal Glands,1.19 Gy/GBq
same,"Absorbed Dose, median",Lacrimal Glands,0.26 Gy/GBq
same,"Absorbed Dose, min",Lacrimal Glands,0.04 Gy/GBq
same,"Absorbed Dose in Cycle 1, Mean",[3],0.39 Gy/GBq
same,"Absorbed Dose in Cycle 1, max",[3],1.19 Gy/GBq
same,"Absorbed Dose in Cycle 1, min",[3],0.04 Gy/GBq
same,"Absorbed Dose in Cycle 1, Mean",[4],0.52 Gy/GBq
same,"Absorbed Dose in Cycle 1, max",[4],1.53 Gy/GBq
same,"Absorbed Dose in Cycle 1, min",[4],0.01 Gy/GBq
same,"Absorbed Dose, Mean",Left colon,0.47 Gy/GBq
same,"Absorbed Dose, max",Left colon,1.53 Gy/GBq
same,"Absorbed Dose, median",Left colon,0.41 Gy/GBq
same,"Absorbed Dose, min",Left colon,0.01 Gy/GBq
same,"Absorbed Dose in Cycle 1, Mean","Left colon, N = 16",0.52 Gy/GBq
same,"Absorbed Dose in Cycle 1, max","Left colon, N = 16",1.53 Gy/GBq
same,"Absorbed Dose in Cycle 1, min","Left colon, N = 16",0.01 Gy/GBq
same,"Absorbed Dose in Cycle 1, Mean",[5],0.04 Gy/GBq
same,"Absorbed Dose in Cycle 1, max",[5],0.10 Gy/GBq
same,"Absorbed Dose in Cycle 1, min",[5],0.01 Gy/GBq
same,"Absorbed Dose, Mean",Liver,0.04 Gy/GBq
same,"Absorbed Dose, max",Liver,0.10 Gy/GBq
same,"Absorbed Dose, median",Liver,0.03 Gy/GBq
same,"Absorbed Dose, min",Liver,0.01 Gy/GBq
same,"Absorbed Dose in Cycle 1, Mean","Liver, N = 16",0.04 Gy/GBq
same,"Absorbed Dose in Cycle 1, max","Liver, N = 16",0.10 Gy/GBq
same,"Absorbed Dose in Cycle 1, min","Liver, N = 16",0.01 Gy/GBq
same,"Absorbed Dose in Cycle 1, Mean",[6],0.01 Gy/GBq
same,"Absorbed Dose in Cycle 1, max",[6],0.07 Gy/GBq
same,"Absorbed Dose in Cycle 1, min",[6],0.00 Gy/GBq
same,"Absorbed Dose, Mean",Lungs,0.01 Gy/GBq
same,"Absorbed Dose, max",Lungs,0.07 Gy/GBq
same,"Absorbed Dose, median",Lungs,0.01 Gy/GBq
same,"Absorbed Dose, min",Lungs,0.00 Gy/GBq
same,"Absorbed Dose in Cycle 1, Mean","Lungs, N = 16",0.01 Gy/GBq
same,"Absorbed Dose in Cycle 1, max","Lungs, N = 16",0.07 Gy/GBq
same,"Absorbed Dose in Cycle 1, min","Lungs, N = 16",0.00 Gy/GBq
same,"Absorbed Dose in Cycle 1, Mean",[7],0.04 Gy/GBq
same,"Absorbed Dose in Cycle 1, max",[7],0.19 Gy/GBq
same,"Absorbed Dose in Cycle 1, min",[7],0.00 Gy/GBq
same,"Absorbed Dose, Mean",Osteogenic cells,0.05 Gy/GBq
same,"Absorbed Dose, max",Osteogenic cells,0.29 Gy/GBq
same,"Absorbed Dose, median",Osteogenic cells,0.02 Gy/GBq
same,"Absorbed Dose, min",Osteogenic cells,0.00 Gy/GBq
same,"Absorbed Dose in Cycle 1, Mean","Osteogenic cells, N = 16",0.04 Gy/GBq
same,"Absorbed Dose in Cycle 1, max","Osteogenic cells, N = 16",0.19 Gy/GBq
same,"Absorbed Dose in Cycle 1, min","Osteogenic cells, N = 16",0.00 Gy/GBq
same,"Absorbed Dose in Cycle 1, Mean",[8],0.02 Gy/GBq
same,"Absorbed Dose in Cycle 1, max",[8],0.07 Gy/GBq
same,"Absorbed Dose in Cycle 1, min",[8],0.00 Gy/GBq
same,"Absorbed Dose, Mean",Pancreas,0.02 Gy/GBq
same,"Absorbed Dose, max",Pancreas,0.07 Gy/GBq
same,"Absorbed Dose, median",Pancreas,0.01 Gy/GBq
